US11439607B2 (Paracelsus Neuroscience I, LLC, priority 2016, dated 2022)
Where two headings read alike, the source gives them in different places.

What was measured:
Rat primary microglia = test: Microglial NO release (measurement of nitrite) after LPS; format: cell-based; settings: 24 hours
Procedure: Next, 3 EU/ml of ultra-pure Lipopolysaccharide (CSE, Associates of Cape Cod) was added to induce iNOS expression and NO synthesis. After a total incubation time of 24 hours, media was collected, spun down to remove cells and assayed for nitrite (the stable breakdown product of NO) using Griess Reagent (Promega, Madison Wis.).
After 24 hours, media was assayed for nitrite (stable metabolite of NO). […] Primary rat cortical microglia were also treated with LPS (3 EU/ml, 3 hours) to stimulate the production of pro-IL-1β.

[1] = Rat screening pharmacokinetics: plasma, brain, CSF exposure; format: in vivo; settings: Screening PK, 10 mg/kg PO; for CSF / Free Brain / Free Plasma / concentration at 1 h / concentration at 4 h: 10 mg/kg; for concentration at 1 h / concentration at 4 h: po
Procedure: (§1) Male Sprague-Dawley rats (Crl:SD, Charles River) weighing 200-350 g were dosed to determine tissue exposure at 10 mg/kg p.o. (n=3) for screening pharmacokinetics (PK), and at 10, 30 and 100 mg/kg p.o. for the CCI studies (n=3 from each treatment group taken from the last arm of study). […] The rats were then decapitated and trunk blood was collected to in K3EDTA containing tubes. Plasma samples were generated by centrifugation (3500×g), and stored frozen at −20° C. until bioanalysis. The brains were harvested immediately following blood collection and stored frozen until bioanalysis at −20° C. For CCI animals, the plasma and brain harvests as described for the screening PK, although the tissue collection was initiated after the behavioral assessment was completed, approximately 4 hours 15 minutes after dosing. For spinal column harvest, a 20-gauge needle on a 10 ml syringe filled with cold saline was inserted into the spinal cord. The saline was used to flush the spinal column out. The spinal column tissues were then stored frozen at −20° C. prior to exposure measurements.
(§2) Prior to analysis, the brain and spinal cord samples were thawed at room temperature, weighed and homogenized using a homogenizing solution (IPA/H2O/DMSO; 30:50:20) at a ratio of 3/1 (ml/g) to generate tissue homogenates. An aliquot of 50 μl plasma, or 50 μl brain and spinal cord homogenates is mixed with 150 μl of a DMSO/ACN (20:80) solution that contains an internal standard (50 ng/ml). The diluted plasma, brain and spinal cord sample is then centrifuged (˜500 g for 15 min at 10° C.), supernatant is removed and then injected (10 μl) onto LC/MS/MS system for analysis. An Atlantis T3 column 2.6μ C18, 50×2.1 mm (Waters, Mass.) was used for analytical separation of the acid. A 6-minute mobile phase gradient was employed with mobile phase A (0.1% formic acid in water) ramping down from 99% to 1% (0-4 minutes), and then ramping back up to 99% (4-6 minutes), while ramping up solvent B (1% formic acid in ACN), from 1% to 99% (0-4 minutes), and then ramping down to 1% (4-6 minutes). Spectra was acquired in positive SRM mode with the parent mass of 324 and a daughter ion of 228.

[2] = Plasma, brain and spinal cord exposure in CCI rats; format: in vivo, rat; settings: for Kp at 4 h / concentration at 4 h: male, Sprague-Dawley, rat; for concentration at 4 h: po
Procedure: as §1, §2

CCI rats = test: Chronic constriction injury (CCI) model, von Frey paw withdrawal threshold; format: in vivo, rat; settings: 4 hours after dosing
Procedure: Peripheral nerve injury was performed according to the method of Bennett and Xie (Bennett and Xie, 1988), with paw withdrawal thresholds to Von Frey filament stimulation measured as described previously (Chaplan et al., 1994; Tal and Bennett, 1994).
In the first cohort of nerve injured rats, hindpaw mechanical hypersensitivity was evident by day 7 and maintained for the duration of the experiment (see FIG. 4A). […] Experiments were run using a simple cross-over design. Tactile hypersensitivity of rats was evaluated one day prior to drug testing. Drugs were allowed to wash out for one week at which time the mechanical hypersensitivity was reassessed. Rats were then randomly re-assigned to groups prior to the next arm of the study being run. In the final arm, tissue was collected from 3 animals from each group immediately after behavioral assessment of allodynia. Dosing of drugs, assessment of mechanical thresholds and collection of tissues were performed by individual experimenters all blinded to treatments.
All CCI data are presented as mean+/−S.E.M. and were analyzed using ANOVA followed by Fisher's PLSD post-hoc analysis (StatView, Cary, N.C.) when appropriate.

Healthy rats = Healthy rats - Tail flick test; format: in vivo; settings: Senicapoc 100 mg/kg PO, 240 min after treatment
Procedure: (§3) Depending on the test, the percentage of activity was calculated from the mean value of the vehicle-treated animals and compared to naïve animals, control paw or cut-off value.

Acetic acid test = Acetic acid test - Abdominal cramps; format: in vivo, rodent; settings: Senicapoc 100 mg/kg PO, 240 min after treatment
Procedure: as §3

Formalin test = Formalin test - Score; format: in vivo, rodent; settings: Senicapoc 100 mg/kg PO, 240 min after treatment
Procedure: as §3

Bennett model = Bennett model - Paw pressure test; format: in vivo, rodent; settings: Senicapoc 100 mg/kg PO, 240 min after treatment
Procedure: as §3

Carrageenan model = test: Carrageenan - Paw pressure test; format: in vivo, rodent; settings: Senicapoc 100 mg/kg PO, 240 min after treatment
Procedure: as §3

Brennan model = Brennan model - Electronic Von Frey test; format: in vivo, rodent; settings: Senicapoc 100 mg/kg PO, 240 min after treatment
Procedure: as §3

TNBS model = test: TNBS - Colorectal distension; format: in vivo, rodent; settings: Senicapoc 100 mg/kg PO, 240 min after treatment
Procedure: as §3

EC50 (Rat primary microglia; FIG. 2A legend, LPS 3EU/ml, n=3, read-out: EC50, inhibition of NO production (nitrite), representative experiment): 0.0009 µM
IC50 (Rat primary microglia; LPS 3 EU/ml, nitrite, read-out: IC50, inhibition of NO release from LPS-treated microglia (average)): 0.039 µM
CSF ([1]; 1 h, mean ± SD): 25 ± 16 nM
Free Brain ([1]; 1 h, UBBr = 0.008): 37 ± 16 nM
Free Plasma ([1]; 1 h, UBP = 0.027): 17 ± 9 nM
CSF ([1]; 4 h, mean ± SD): 121 ± 62 nM
Free Brain ([1]; 4 h, UBBr = 0.008): 136 ± 50 nM
Free Plasma ([1]; 4 h, UBP = 0.027): 65 ± 22 nM
concentration at 1 h ([1]; male, Sprague-Dawley, rat, brain, 1 h, mean ± SD, read-out: Brain): 4.66 ± 1.99 µM
concentration at 1 h ([1]; male, Sprague-Dawley, rat, brain, 1 h, UBBr = 0.008, read-out: Free Brain): 0.037 µM
concentration at 4 h ([1]; male, Sprague-Dawley, rat, brain, 4 h, mean ± SD, read-out: Brain): 16.9 ± 6.04 µM
concentration at 4 h ([1]; male, Sprague-Dawley, rat, brain, 4 h, UBBr = 0.008, read-out: Free Brain): 0.136 µM
Kp at 1 h ([1]; male, Sprague-Dawley, rat, brain, 1 h, read-out: Free Brain/Free Plasma): 2.2
Kp at 4 h ([1]; male, Sprague-Dawley, rat, brain, 4 h, read-out: Free Brain/Free Plasma): 2.1
concentration at 1 h ([1]; male, Sprague-Dawley, rat, plasma, 1 h, mean ± SD, read-out: Plasma): 0.637 ± 0.322 µM
concentration at 1 h ([1]; male, Sprague-Dawley, rat, plasma, 1 h, UBP = 0.027, read-out: Free Plasma): 0.017 µM
concentration at 4 h ([1]; male, Sprague-Dawley, rat, plasma, 4 h, mean ± SD, read-out: Plasma): 2.39 ± 0.748 µM
concentration at 4 h ([1]; male, Sprague-Dawley, rat, plasma, 4 h, UBP = 0.027, read-out: Free Plasma): 0.065 µM
concentration at 1 h ([1]; male, Sprague-Dawley, rat, 1 h, mean ± SD, read-out: CSF): 0.025 µM
concentration at 4 h ([1]; male, Sprague-Dawley, rat, 4 h, mean ± SD, read-out: CSF): 0.121 µM
Spinal Cord ([2]; 10 mg/kg PO, 4 h, LLQ 773 nM): <LLQ^γ
Plasma ([2]; 10 mg/kg PO, 4 h, n = 1 (2 samples <LLQ 773 nM)): 782^£ nM
Free Plasma ([2]; 10 mg/kg PO, 4 h, n = 1, UBP = 0.027): 21^£ nM
Kp at 4 h ([2]; brain, 10 mg/kg PO, read-out: Free Brain/Free Plasma): 1.1 ± 0.1
Kp at 4 h ([2]; brain, 30 mg/kg PO, read-out: Free Brain/Free Plasma): 0.9 ± 0.1
Kp at 4 h ([2]; brain, 100 mg/kg PO, read-out: Free Brain/Free Plasma): 1 ± 0.2
concentration at 4 h ([2]; brain, 10 mg/kg, 10 mg/kg PO, UBBr = 0.008, read-out: Free Brain): 0.022 ± 0.001 µM
concentration at 4 h ([2]; brain, 10 mg/kg, 10 mg/kg PO, mean ± SD, read-out: Brain): 2.77 ± 0.38 µM
concentration at 4 h ([2]; brain, 30 mg/kg, 30 mg/kg PO, UBBr = 0.008, read-out: Free Brain): 0.051 ± 0.016 µM
concentration at 4 h ([2]; brain, 30 mg/kg, 30 mg/kg PO, mean ± SD, read-out: Brain): 6.42 ± 1.96 µM
concentration at 4 h ([2]; brain, 100 mg/kg, 100 mg/kg PO, UBBr = 0.008, read-out: Free Brain): 0.106 ± 0.021 µM
concentration at 4 h ([2]; brain, 100 mg/kg, 100 mg/kg PO, mean ± SD, read-out: Brain): 13.3 ± 2.62 µM
concentration at 4 h ([2]; plasma, 30 mg/kg, 30 mg/kg PO, UBP = 0.027, read-out: Free Plasma): 0.056 ± 0.012 µM
concentration at 4 h ([2]; plasma, 30 mg/kg, 30 mg/kg PO, mean ± SD, read-out: Plasma): 2.06 ± 0.452 µM
concentration at 4 h ([2]; plasma, 100 mg/kg, 100 mg/kg PO, UBP = 0.027, read-out: Free Plasma): 0.103 ± 0.003 µM
concentration at 4 h ([2]; plasma, 100 mg/kg, 100 mg/kg PO, mean ± SD, read-out: Plasma): 3.8 ± 0.093 µM
Kp at 4 h ([2]; spinal cord, 30 mg/kg PO, read-out: Free Spinal Cord/Free Plasma): 0.8 ± 0.6
Kp at 4 h ([2]; spinal cord, 100 mg/kg PO, read-out: Free Spinal Cord/Free Plasma): 0.7 ± 0.3
concentration at 4 h ([2]; spinal cord, 30 mg/kg, 30 mg/kg PO, brain free fraction 0.008 used, read-out: Free Spinal Cord): 0.038 ± 0.017 µM
concentration at 4 h ([2]; spinal cord, 30 mg/kg, 30 mg/kg PO, mean ± SD, read-out: Spinal Cord): 3.4 ± 2.74 µM
concentration at 4 h ([2]; spinal cord, 100 mg/kg, 100 mg/kg PO, brain free fraction 0.008 used, read-out: Free Spinal Cord): 0.095 ± 0.017 µM
concentration at 4 h ([2]; spinal cord, 100 mg/kg, 100 mg/kg PO, mean ± SD, read-out: Spinal Cord): 11.9 ± 2.18 µM
SMILES: NC(=O)C(c1ccccc1)(c1ccc(F)cc1)c1ccc(F)cc1 [Senicapoc]
Reversal of mechanical hypersensitivity (tactile allodynia) (CCI rats; 100 mg/kg p.o.): 48%
Effect on injury-induced nociceptive behaviors at the low doses (CCI rats; low doses (10, 30 mg/kg p.o.)): lack of significant effect
% of activity vs. vehicle (Healthy rats): 9%
% of activity vs. vehicle (Acetic acid test): −32%
% of activity vs. vehicle (Formalin test; early phase): 14%
% of activity vs. vehicle (Formalin test; late phase): 8%
% of activity vs. vehicle (Bennett model): 69%
% of activity vs. vehicle (Carrageenan model): 116%
% of activity vs. vehicle (Brennan model): −7%
% of activity vs. vehicle (TNBS model): 50%
